Laboratory results: patent US12337010B2, “Compositions and methods of treatment using nicotinamide mononucleotide” (Washington University, priority 2017, dated 2025)

Columns and labels:
[1] = test system: primary mouse hepatocytes; test: NMN uptake in primary mouse hepatocytes, intracellular NMN by HPLC; format: cell-based
Method: The amounts of adenosine produced were determined by HPLC. […] Silencing efficiencies were evaluated by quantitative RT-PCR.
Primary mouse hepatocytes were pretreated with 500 nM FK866 for 24 h and then incubated with a cocktail of 20 μM dipyridamole, 500 μM AOPCP, and 500 nM FK866, with or without 100 μM NMN. NMN was measured by HPLC (n=4 mice, except for 3 data sets for 15 and 30 minute time points for inhibitors only; analyzed using ANOVA with Sidak's test).
To measure the knockdown efficiencies of Slc12a8 and Nrk1 mRNA in primary mouse hepatocytes, cells were treated with scramble and Slc12a8 or Nrk1 siRNA for 72 h (n=5 mice for Slc12a8 silencing and n=3 for Nrk1 silencing; analyzed by unpaired […] t-test). Without being limited by theory, these conditions knocked down expression of Slc12a8 and Nrk1, a major NR kinase that converts NR to NMN intracellularly (Belenky, P., et al., Cell, 129, 473-484, 2007). Primary hepatocytes treated with scramble, Slc12a8, and Nrk1 siRNA were assayed at 1 min after addition of 100 μM NMN via HPLC. Culture conditions were the same as described in Example 3 (n=5 mice for Slc12a8 silencing and n=3 for Nrk1 silencing; analyzed by ANOVA with Tukey's test). The knockdown efficiencies for both genes are approximately 80% (FIG. 7).

Slc12a8 = molecular target: T1, Slc12a8 (Mus musculus, UniProt Q8VI23); test: Radiolabeled NMN uptake in Slc12a8-OE and control NIH3T3 cells; format: cell-based; settings: Slc12a8-OE NIH3T3 cells, 4 min, 37° C., control background subtracted
T1 construct: NIH3T3 cells were transfected with 5 μg of pCXN2 carrying the full-length Slc12a8 cDNA (Slc12a8-OE); expressed in transfected cells
T1 sequence (Q8VI23 1-705): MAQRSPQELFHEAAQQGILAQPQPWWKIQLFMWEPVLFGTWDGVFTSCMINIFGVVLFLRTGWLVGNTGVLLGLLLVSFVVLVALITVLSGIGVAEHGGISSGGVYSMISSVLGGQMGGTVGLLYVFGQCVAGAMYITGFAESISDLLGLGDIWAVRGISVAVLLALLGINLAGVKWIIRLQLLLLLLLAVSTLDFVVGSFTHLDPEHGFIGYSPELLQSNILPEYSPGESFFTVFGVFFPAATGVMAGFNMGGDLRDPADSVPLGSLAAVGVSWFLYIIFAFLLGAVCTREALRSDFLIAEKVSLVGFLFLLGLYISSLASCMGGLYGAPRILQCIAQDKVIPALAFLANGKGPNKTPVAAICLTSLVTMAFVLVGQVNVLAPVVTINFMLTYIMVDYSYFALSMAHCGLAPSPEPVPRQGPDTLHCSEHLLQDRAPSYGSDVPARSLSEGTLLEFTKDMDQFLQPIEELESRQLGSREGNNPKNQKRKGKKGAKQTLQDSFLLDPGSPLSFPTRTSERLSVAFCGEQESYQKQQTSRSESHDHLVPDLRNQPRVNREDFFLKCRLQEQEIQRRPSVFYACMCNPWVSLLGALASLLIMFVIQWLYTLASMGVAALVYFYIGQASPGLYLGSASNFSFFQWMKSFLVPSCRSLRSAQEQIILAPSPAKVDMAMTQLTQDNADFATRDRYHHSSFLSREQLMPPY
Method: NMN uptake analyses with radiolabeled NMN. Control and Slc12a8-OE NIH3T3 cells were harvested by centrifugation (400×g, 5 min), washed once in HBSS, and incubated at 37° C. in HBSS [pH 7.5] (5×10^6 cells/ml) containing 100 nM 3H-β-Nicotinamide mononucleotide (9 Ci/mmol; Moravek Biochemicals, CA) and unlabeled NMN to make the final concentration 25 μM. At the designated time points (1, 3, 5 and 10 minutes), aliquots of the cells (100 μl) were collected and placed in 1.5-ml microcentrifuge tubes containing silicone-mineral oil (density, 1.015; Sigma-Aldrich) on the top of 2 M potassium hydroxide solution, followed by centrifugation at 16,000×g for 30s. Cells were separated from the buffer and pelleted through the silicone-mineral oil layer. The radioactivity in these cell pellets was determined by a liquid scintillation counter. For calculating Km and Vmax, the same conditions were used as described above, but with various total concentrations of NMN, ranging from 1 μM to 100 μM. At the 4-min time point, 100 μl of cell suspension was collected and pelleted in the same way described above. The radioactivity in cell pellets was determined by a liquid scintillation counter. The radioactivity measured in control NIH3T3 cells was subtracted to calculate Slc12a8-specific NMN uptake in Slc12a8-OE NIH3T3 cells.
Uptake of NMN was measured as described in methods under “NMN uptake analyses with radiolabeled NMN” using 25 μM ^3H-NMN at 37° C. in control and Slc12a8-OE NIH3T3 cells over 10 min in Hanks' buffer [ph7.5] with Mg2+ and Ca2+ (n=12; analyzed by ANOVA with Sidak's test). […] This Km is qualitatively consistent with a detected range of NMN concentrations in mouse plasma and erythrocytes (Revollo, J. R. et al., Cell Metab., 6, 363-375, 2007; Ramsey, K. M., et al., Science, 324, 651-654, 2009; Yamada, K., et al., Anal. Biochem., 352, 282-285, 2006).

NIH3T3 cells = test: Intracellular NAD+ levels in control and Slc12a8-OE NIH3T3 cells; format: cell-based, mouse; settings: Slc12a8-OE cells, additional 1-hr incubation with 100 μM NMN after inhibitor cocktail
Source text: NAD+ and NMN measurements by HPLC.

In the case of `NC(=O)c1ccc[n+]([C@@H]2O[C@H](COP(=O)([O-])O)[C@@H](O)[C@H]2O)c1` [NMN, nicotinamide mononucleotide], the “intracellular NMN levels” value ([1]; 100 μM NMN with 20 μM dipyridamole, 500 μM AOPCP, 500 nM FK866, 1 min time point vs control) is reported as “significantly increase”, the NMN uptake ([1]; Nrk1-knockdown hepatocytes, 1 min after 100 μM NMN) is reported as “no significant reduction” and the “fast uptake of NMN” value ([1]; Slc12a8-knockdown hepatocytes, 1 min after 100 μM NMN) is reported as “completely abrogated”. For the same compound, the Km (Slc12a8) was 34.1 ± 8.3 µM, the Vmax (Slc12a8) was 11.5 ± 1.2 pmol/min/mg and the “intracellular NAD+ levels” value (NIH3T3 cells) was “restore NAD+ levels to the original levels”.
